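Cells were grown in 96-well plates and exposed to each compound for 48 hours at five concentrations; endpoints were interpolated linearly between bracketing concentrations, or set to the highest concentration if not reached. TGI: total growth inhibition.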
What was measured:
Assay in all cases: inhibition of tumour cell growth, NCI panel, 48 h
A549 NSCLC = system: A549 NSCLC
BT-549 breast = system: BT-549 breast
HCC-2998 colon = system: HCC-2998 colon
HS 578T breast = system: HS 578T breast
HT29 colon = system: HT29 colon
M14 melanoma = system: M14 melanoma
MDA-N = system: MDA-N
NCI-H460 lung = system: NCI-H460 lung
OVCAR-3 ovarian = system: OVCAR-3 ovarian
SF-268 CNS = system: SF-268 CNS
SK-MEL-28 melanoma = system: SK-MEL-28 melanoma
SK-OV-3 ovarian = system: SK-OV-3 ovarian
SNB-19 CNS = system: SNB-19 CNS
UACC-257 melanoma = system: UACC-257 melanoma
UO-31 renal = system: UO-31 renal
IGROV1 ovarian = system: IGROV1 ovarian
TK-10 renal = system: TK-10 renal

Row | Compound | TGI (A549 NSCLC) [µM] | TGI (BT-549 breast) [µM] | TGI (HCC-2998 colon) [µM] | TGI (HS 578T breast) [µM] | TGI (HT29 colon) [µM] | TGI (M14 melanoma) [µM] | TGI (MDA-N) [µM] | TGI (NCI-H460 lung) [µM] | TGI (OVCAR-3 ovarian) [µM] | TGI (SF-268 CNS) [µM] | TGI (SK-MEL-28 melanoma) [µM] | TGI (SK-OV-3 ovarian) [µM] | TGI (SNB-19 CNS) [µM] | TGI (UACC-257 melanoma) [µM] | TGI (UO-31 renal) [µM] | TGI (IGROV1 ovarian) [µM] | TGI (TK-10 renal) [µM]
1 | O=C1NC(=O)C(CCC(=O)c2cccc3ccccc23)C(=O)N1 | > 100 | > 100 | > 100 | > 100 | > 100 | > 100 | > 100 | > 100 | > 100 | > 100 | > 100 | > 100 | > 100 | > 100 | > 100 |  | 
2 | N#Cc1ccc(C2ON=C(c3ccccc3)N2C23CC4CC(CC(C4)C2)C3)cc1 (stereo not given) | > 10 | > 10 | > 10 | > 10 | > 10 | > 10 | > 10 | > 10 | > 10 | > 10 | > 10 | > 10 | > 10 | > 10 |  | > 10 | > 10
3 | Cn1c(-c2ccccc2)cc(-c2ccc3c(c2)OCO3)c1-c1ccsc1 | > 100 | > 100 | > 100 | > 100 | > 100 | > 100 | > 100 | > 100 | > 100 | > 100 | > 100 | > 100 | > 100 | > 100 | > 100 |  | > 100
4 | S=C(NCCc1ccccn1)N/N=C(\c1ccccc1)c1ccccn1 | > 100 | 39.3 | > 63 | > 100 | 21.7 | > 100 | > 100 | > 100 | > 100 | > 76.1 | > 100 | > 66.2 | > 100 | > 70.5 | 14.1 |  | > 100
5 | CC(=O)Nc1ccc(S(=O)(=O)c2nnc(NC(C)=O)s2)cc1 | > 100 | > 100 | > 100 | > 100 | > 100 | > 100 | > 100 | > 100 | > 100 | > 100 | > 100 | > 100 | > 100 | > 100 | > 100 | > 100 | > 100
6 | Cc1n[nH]c(=O)n1C1CC1 | > 100 | > 100 | > 100 | > 100 | > 100 | > 100 | > 100 | > 100 | > 100 | > 100 | > 100 | > 100 | > 100 | > 100 | > 100 | > 100 | 
7 | CCOC(=O)C1CCCc2sc(N)c(C#N)c21 (stereo not given) | > 100 | > 100 | > 100 | > 100 | > 100 | > 100 | > 100 | > 100 |  |  | > 100 |  | > 100 | > 100 | > 100 | > 100 | > 100
8 | CCOC(=O)c1c(NC(=S)Nc2ccccc2)sc2c1CCN(C)C2 | > 100 | > 100 |  | > 100 | > 100 | > 100 | > 100 | > 100 | > 100 | > 100 |  |  | > 100 | > 100 | > 100 | > 100 | > 100
9 | COc1ccc(C2(CC(C)C)CCNC2)cc1OC (stereo not given) | > 100 | > 100 | 38.5 | > 100 | > 100 | > 100 | > 100 | > 100 |  | > 100 | > 100 | > 100 | > 100 | > 100 | > 100 | > 100 | > 100
10 | CC1(C)CN(CC(=O)O)CC(Cc2ccc(OCC(=O)O)cc2)N(CC(=O)O)CC(C)(C)SS1 (stereo not given) | > 100 | > 100 | > 100 | > 100 | > 100 | > 100 | > 100 | > 100 | > 100 | > 100 | > 100 | > 100 | > 100 | > 100 | > 100 | > 100 | > 100
11 | COCN1C(=O)[C@@H]2C[C@@H](O)CN2C(=O)c2ccccc21 | > 100 | > 100 | > 100 | > 100 | > 100 | > 100 | > 100 | > 100 |  | > 100 | > 100 | > 100 | > 100 | > 100 | > 100 | > 100 | > 100
12 | Cc1cccc(N=Nc2c(C)nn(C(=O)CC(=O)Nc3ccc(Cl)cc3)c2C)c1 | > 100 | > 100 | > 100 | > 100 | > 100 | > 100 | > 100 | > 100 | > 100 | > 100 | > 100 | > 100 | > 100 | > 100 | > 100 |  | > 100
13 | Nc1nc(Cl)c(N)c(NCC2(CO)CCC(OCc3ccccc3)C2)n1 (stereo not given) | > 100 | > 100 | > 100 | > 100 | > 100 |  | > 100 | > 100 | > 100 | > 100 | > 100 | > 100 | > 100 |  | > 100 | > 100 | > 100
14 | C/C(=C/CC[C@](C)(OC1OC(CO)C(O)C(O)C1O)[C@H]1CC[C@]2(C)[C@@H]1CC[C@@H]1[C@@]3(C)CC[C@H](O)C(C)(C)[C@@H]3C[C@H](O)[C@]12CO)CO (stereo not given in full) | > 100 | > 100 |  | > 100 | > 100 | > 100 | > 100 | > 100 | > 100 | > 100 | > 100 | > 100 | > 100 | > 100 | > 100 | > 100 | > 100

— PubChem BioAssay (NCI)
